# Experimental data taken from patent US9169310B2 (Zealand Pharma A/S, priority 2010, dated 2015).
# Starred links: 1 amine or outer side, 2 acyl side, 3 side chain; linkers in the order of their positions; H or OH if unused. Non-standard residues stand in square brackets, D forms with d. Residues, ends and D or L forms follow the SMILES beside them. Groups on a side chain read outwards from the residue. *: point of attachment. Ala(pyrazol-1-yl) = N[C@@H](Cn1cccn1)C(=O)O; Ala(4-thiazolyl) = N[C@@H](Cc1cscn1)C(=O)O; γGlu = O=C(O)[C@H](CCC(=O)[*:2])N[*:1]; X1 = O=C([C@H](Cn1cncn1)N[*:1])[*:2]; Palmitoyl = CCCCCCCCCCCCCCCC(=O)*; Aib = CC(C)(N)C(=O)O
# Target: T1, human glucagon-R (Homo sapiens, UniProt P47871)
# T1 construct: expressed in transfected cells
# T1 sequence (P47871 26-477): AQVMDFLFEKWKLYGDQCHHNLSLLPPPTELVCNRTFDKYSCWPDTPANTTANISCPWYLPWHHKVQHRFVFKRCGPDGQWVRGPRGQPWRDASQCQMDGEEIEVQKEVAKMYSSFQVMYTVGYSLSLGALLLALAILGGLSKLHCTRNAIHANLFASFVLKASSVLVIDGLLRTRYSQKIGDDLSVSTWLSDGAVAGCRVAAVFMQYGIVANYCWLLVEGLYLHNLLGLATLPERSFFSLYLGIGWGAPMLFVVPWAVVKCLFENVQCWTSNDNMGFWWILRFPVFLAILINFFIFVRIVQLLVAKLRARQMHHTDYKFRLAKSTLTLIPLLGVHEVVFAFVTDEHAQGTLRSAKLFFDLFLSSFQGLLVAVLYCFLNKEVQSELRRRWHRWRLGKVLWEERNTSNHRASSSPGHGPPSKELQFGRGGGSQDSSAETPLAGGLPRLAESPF
# Test: Glucagon receptor efficacy assay (cAMP formation, FlashPlate cAMP kit)
# Type: cell-based
# Settings: HEK293 cells expressing human glucagon-R; cAMP formed, 15 min at 37° C.; read-out: EC50 nM) GluR
# Description: (§1) The 5′-end primers additionally encoded a near Kozak consensus sequence to ensure efficient translation.
# (§2) 48 hr after transfection, cells were seeded for limited dilution cloning and selected with 1 mg/ml G418 in the culture medium.
row,EC50 [nM],SMILES
1,26,CCCCCCCCCCCCCCCC(=O)N[C@@H](CCC(=O)NCCCC[C@H](NC(=O)[C@H](CO)NC(=O)[C@H](CC(=O)O)NC(=O)[C@H](CC(C)C)NC(=O)[C@H](Cc1ccc(O)cc1)NC(=O)[C@H](CCCCN)NC(=O)[C@H](CO)NC(=O)[C@H](Cc1ccc(O)cc1)NC(=O)[C@H](CC(=O)O)NC(=O)[C@H](CO)NC(=O)[C@@H](NC(=O)[C@H](Cc1ccccc1)NC(=O)[C@@H](NC(=O)CNC(=O)[C@H](CCC(=O)O)NC(=O)C(C)(C)NC(=O)[C@@H](N)Cc1c[nH]cn1)[C@@H](C)O)[C@@H](C)O)C(=O)N[C@@H](C)C(=O)N[C@@H](C)C(=O)N[C@@H](Cc1c[nH]cn1)C(=O)N[C@@H](CC(=O)O)C(=O)N[C@@H](Cc1ccccc1)C(=O)N[C@H](C(=O)N[C@@H](CCC(=O)O)C(=O)N[C@@H](Cc1c[nH]c2ccccc12)C(=O)N[C@@H](CC(C)C)C(=O)N[C@@H](CC(C)C)C(=O)N[C@@H](CO)C(=O)N[C@@H](C)C(N)=O)C(C)C)C(=O)O [Compound 7] (H-H[Aib]EGTFTSDYSKYLDSK([γGlu-Palmitoyl])AAHDFVEWLLSA-NH2)
2,3,CCCCCCCCCCCCCCCC(=O)N[C@@H](CCC(=O)NCCCC[C@H](NC(=O)[C@H](CO)NC(=O)[C@H](CC(=O)O)NC(=O)[C@H](CC(C)C)NC(=O)[C@H](Cc1ccc(O)cc1)NC(=O)[C@H](CCCCN)NC(=O)[C@H](CO)NC(=O)[C@H](Cc1ccc(O)cc1)NC(=O)[C@H](CC(=O)O)NC(=O)[C@H](CO)NC(=O)[C@@H](NC(=O)[C@H](Cc1ccccc1)NC(=O)[C@@H](NC(=O)[C@H](C)NC(=O)[C@H](CCC(N)=O)NC(=O)C(C)(C)NC(=O)[C@@H](N)Cc1c[nH]cn1)[C@@H](C)O)[C@@H](C)O)C(=O)N[C@@H](C)C(=O)N[C@@H](C)C(=O)N[C@@H](Cc1c[nH]cn1)C(=O)N[C@@H](CC(=O)O)C(=O)N[C@@H](Cc1ccccc1)C(=O)N[C@H](C(=O)N[C@@H](CCC(=O)O)C(=O)N[C@@H](Cc1c[nH]c2ccccc12)C(=O)N[C@@H](CC(C)C)C(=O)N[C@@H](CC(C)C)C(=O)N[C@@H](CO)C(=O)N[C@@H](C)C(N)=O)C(C)C)C(=O)O [Compound 8] (H-H[Aib]QATFTSDYSKYLDSK([γGlu-Palmitoyl])AAHDFVEWLLSA-NH2)
3,3,CCCCCCCCCCCCCCCC(=O)N[C@@H](CCC(=O)NCCCC[C@H](NC(=O)[C@H](CO)NC(=O)[C@H](CC(=O)O)NC(=O)[C@H](CC(C)C)NC(=O)[C@H](Cc1ccc(O)cc1)NC(=O)[C@H](CCCCN)NC(=O)[C@H](CO)NC(=O)[C@H](Cc1ccc(O)cc1)NC(=O)[C@H](CC(=O)O)NC(=O)[C@H](CO)NC(=O)[C@@H](NC(=O)[C@H](Cc1ccccc1)NC(=O)[C@@H](NC(=O)CNC(=O)[C@@H](NC(=O)C(C)(C)NC(=O)[C@@H](N)Cc1c[nH]cn1)C(C)C)[C@@H](C)O)[C@@H](C)O)C(=O)N[C@@H](C)C(=O)N[C@@H](C)C(=O)N[C@@H](Cc1c[nH]cn1)C(=O)N[C@@H](CC(=O)O)C(=O)N[C@@H](Cc1ccccc1)C(=O)N[C@H](C(=O)N[C@@H](CCC(=O)O)C(=O)N[C@@H](Cc1c[nH]c2ccccc12)C(=O)N[C@@H](CC(C)C)C(=O)N[C@@H](CC(C)C)C(=O)N[C@@H](CO)C(=O)N[C@@H](C)C(N)=O)C(C)C)C(=O)O [Compound 16] (H-H[Aib]VGTFTSDYSKYLDSK([γGlu-Palmitoyl])AAHDFVEWLLSA-NH2)

# Target: T2, human GLP-1R (Homo sapiens, UniProt P43220)
# T2 construct: expressed in transfected cells
# T2 sequence (P43220 24-463): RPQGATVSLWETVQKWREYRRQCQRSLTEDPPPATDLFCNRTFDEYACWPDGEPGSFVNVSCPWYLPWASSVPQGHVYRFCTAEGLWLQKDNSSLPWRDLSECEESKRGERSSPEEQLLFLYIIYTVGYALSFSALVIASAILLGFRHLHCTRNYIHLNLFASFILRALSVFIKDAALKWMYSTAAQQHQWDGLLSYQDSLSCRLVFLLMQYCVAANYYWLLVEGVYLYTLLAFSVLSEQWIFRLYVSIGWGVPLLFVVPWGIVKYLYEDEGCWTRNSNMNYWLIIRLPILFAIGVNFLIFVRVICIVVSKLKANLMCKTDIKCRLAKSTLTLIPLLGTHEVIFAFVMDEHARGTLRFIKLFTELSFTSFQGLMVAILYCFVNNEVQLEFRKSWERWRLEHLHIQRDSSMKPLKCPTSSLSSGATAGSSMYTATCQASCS
# Test: GLP-1 receptor efficacy assay (cAMP formation, FlashPlate cAMP kit)
# Type: cell-based
# Settings: HEK293 cells expressing human GLP-1R; cAMP formed, 15 min at 37° C.
# Description: as §1, §2
row,SMILES,EC50 [nM]
1,CCCCCCCCCCCCCCCC(=O)N[C@@H](CCC(=O)NCCCC[C@H](NC(=O)[C@H](CO)NC(=O)[C@H](CC(=O)O)NC(=O)[C@H](CC(C)C)NC(=O)[C@H](Cc1ccc(O)cc1)NC(=O)[C@H](CCCCN)NC(=O)[C@H](CO)NC(=O)[C@H](Cc1ccc(O)cc1)NC(=O)[C@H](CC(=O)O)NC(=O)[C@H](CO)NC(=O)[C@@H](NC(=O)[C@H](Cc1ccccc1)NC(=O)[C@@H](NC(=O)CNC(=O)[C@H](Cc1c[nH]cn1)NC(=O)C(C)(C)NC(=O)[C@@H](N)Cc1c[nH]cn1)[C@@H](C)O)[C@@H](C)O)C(=O)N[C@@H](C)C(=O)N[C@@H](C)C(=O)N[C@@H](Cc1c[nH]cn1)C(=O)N[C@@H](CC(=O)O)C(=O)N[C@@H](Cc1ccccc1)C(=O)N[C@H](C(=O)N[C@@H](CCC(=O)O)C(=O)N[C@@H](Cc1c[nH]c2ccccc12)C(=O)N[C@@H](CC(C)C)C(=O)N[C@@H](CC(C)C)C(=O)N[C@@H](CO)C(=O)N[C@@H](C)C(N)=O)C(C)C)C(=O)O [Compound 1] (H-H[Aib]HGTFTSDYSKYLDSK([γGlu-Palmitoyl])AAHDFVEWLLSA-NH2),0.21
2,CCCCCCCCCCCCCCCC(=O)N[C@@H](CCC(=O)NCCCC[C@H](NC(=O)[C@H](CO)NC(=O)[C@H](CC(=O)O)NC(=O)[C@H](CC(C)C)NC(=O)[C@H](Cc1ccc(O)cc1)NC(=O)[C@H](CCCCN)NC(=O)[C@H](CO)NC(=O)[C@H](Cc1ccc(O)cc1)NC(=O)[C@H](CC(=O)O)NC(=O)[C@H](CO)NC(=O)[C@@H](NC(=O)[C@H](Cc1ccccc1)NC(=O)[C@@H](NC(=O)CNC(=O)[C@H](C)NC(=O)C(C)(C)NC(=O)[C@@H](N)Cc1c[nH]cn1)[C@@H](C)O)[C@@H](C)O)C(=O)N[C@@H](C)C(=O)N[C@@H](C)C(=O)N[C@@H](Cc1c[nH]cn1)C(=O)N[C@@H](CC(=O)O)C(=O)N[C@@H](Cc1ccccc1)C(=O)N[C@H](C(=O)N[C@@H](CCC(=O)O)C(=O)N[C@@H](Cc1c[nH]c2ccccc12)C(=O)N[C@@H](CC(C)C)C(=O)N[C@@H](CC(C)C)C(=O)N[C@@H](CO)C(=O)N[C@@H](C)C(N)=O)C(C)C)C(=O)O [Compound 17] (H-H[Aib]AGTFTSDYSKYLDSK([γGlu-Palmitoyl])AAHDFVEWLLSA-NH2),0.09
3,CCCCCCCCCCCCCCCC(=O)N[C@@H](CCC(=O)NCCCC[C@H](NC(=O)[C@H](CO)NC(=O)[C@H](CC(=O)O)NC(=O)[C@H](CC(C)C)NC(=O)[C@H](Cc1ccc(O)cc1)NC(=O)[C@H](CCCCN)NC(=O)[C@H](CO)NC(=O)[C@H](Cc1ccc(O)cc1)NC(=O)[C@H](CC(=O)O)NC(=O)[C@H](CO)NC(=O)[C@@H](NC(=O)[C@H](Cc1ccccc1)NC(=O)[C@@H](NC(=O)CNC(=O)[C@H](Cc1cscn1)NC(=O)C(C)(C)NC(=O)[C@@H](N)Cc1c[nH]cn1)[C@@H](C)O)[C@@H](C)O)C(=O)N[C@@H](C)C(=O)N[C@@H](C)C(=O)N[C@@H](Cc1c[nH]cn1)C(=O)N[C@@H](CC(=O)O)C(=O)N[C@@H](Cc1ccccc1)C(=O)N[C@H](C(=O)N[C@@H](CCC(=O)O)C(=O)N[C@@H](Cc1c[nH]c2ccccc12)C(=O)N[C@@H](CC(C)C)C(=O)N[C@@H](CC(C)C)C(=O)N[C@@H](CO)C(=O)N[C@@H](C)C(N)=O)C(C)C)C(=O)O [Compound 23] (H-H[Aib][Ala(4-thiazolyl)]GTFTSDYSKYLDSK([γGlu-Palmitoyl])AAHDFVEWLLSA-NH2),0.11

# The remaining lines, values ahead:
row,EC50 [nM],SMILES
1,0.09,CCCCCCCCCCCCCCCC(=O)N[C@@H](CCC(=O)NCCCC[C@H](NC(=O)[C@H](CO)NC(=O)[C@H](CC(=O)O)NC(=O)[C@H](CC(C)C)NC(=O)[C@H](Cc1ccc(O)cc1)NC(=O)[C@H](CCCCN)NC(=O)[C@H](CO)NC(=O)[C@H](Cc1ccc(O)cc1)NC(=O)[C@H](CC(=O)O)NC(=O)[C@H](CO)NC(=O)[C@@H](NC(=O)[C@H](Cc1ccccc1)NC(=O)[C@@H](NC(=O)CNC(=O)[C@H](CO)NC(=O)C(C)(C)NC(=O)[C@@H](N)Cc1c[nH]cn1)[C@@H](C)O)[C@@H](C)O)C(=O)N[C@@H](C)C(=O)N[C@@H](C)C(=O)N[C@@H](Cc1c[nH]cn1)C(=O)N[C@@H](CC(=O)O)C(=O)N[C@@H](Cc1ccccc1)C(=O)N[C@H](C(=O)N[C@@H](CCC(=O)O)C(=O)N[C@@H](Cc1c[nH]c2ccccc12)C(=O)N[C@@H](CC(C)C)C(=O)N[C@@H](CC(C)C)C(=O)N[C@@H](CO)C(=O)N[C@@H](C)C(N)=O)C(C)C)C(=O)O [Compound 18] (H-H[Aib]SGTFTSDYSKYLDSK([γGlu-Palmitoyl])AAHDFVEWLLSA-NH2)
2,0.09,CCCCCCCCCCCCCCCC(=O)N[C@@H](CCC(=O)NCCCC[C@H](NC(=O)[C@H](CO)NC(=O)[C@H](CC(=O)O)NC(=O)[C@H](CC(C)C)NC(=O)[C@H](Cc1ccc(O)cc1)NC(=O)[C@H](CCCCN)NC(=O)[C@H](CO)NC(=O)[C@H](Cc1ccc(O)cc1)NC(=O)[C@H](CC(=O)O)NC(=O)[C@H](CO)NC(=O)[C@@H](NC(=O)[C@H](Cc1ccccc1)NC(=O)[C@@H](NC(=O)CNC(=O)[C@H](Cn1cncn1)NC(=O)C(C)(C)NC(=O)[C@@H](N)Cc1c[nH]cn1)[C@@H](C)O)[C@@H](C)O)C(=O)N[C@@H](C)C(=O)N[C@@H](C)C(=O)N[C@@H](Cc1c[nH]cn1)C(=O)N[C@@H](CC(=O)O)C(=O)N[C@@H](Cc1ccccc1)C(=O)N[C@H](C(=O)N[C@@H](CCC(=O)O)C(=O)N[C@@H](Cc1c[nH]c2ccccc12)C(=O)N[C@@H](CC(C)C)C(=O)N[C@@H](CC(C)C)C(=O)N[C@@H](CO)C(=O)N[C@@H](C)C(N)=O)C(C)C)C(=O)O [Compound 25] (H-H[Aib][X1]GTFTSDYSKYLDSK([γGlu-Palmitoyl])AAHDFVEWLLSA-NH2)
3,0.11,CCCCCCCCCCCCCCCC(=O)N[C@@H](CCC(=O)NCCCC[C@H](NC(=O)[C@H](CO)NC(=O)[C@H](CC(=O)O)NC(=O)[C@H](CC(C)C)NC(=O)[C@H](Cc1ccc(O)cc1)NC(=O)[C@H](CCCCN)NC(=O)[C@H](CO)NC(=O)[C@H](Cc1ccc(O)cc1)NC(=O)[C@H](CC(=O)O)NC(=O)[C@H](CO)NC(=O)[C@@H](NC(=O)[C@H](Cc1ccccc1)NC(=O)[C@@H](NC(=O)CNC(=O)[C@H](Cn1cccn1)NC(=O)C(C)(C)NC(=O)[C@@H](N)Cc1c[nH]cn1)[C@@H](C)O)[C@@H](C)O)C(=O)N[C@@H](C)C(=O)N[C@@H](C)C(=O)N[C@@H](Cc1c[nH]cn1)C(=O)N[C@@H](CC(=O)O)C(=O)N[C@@H](Cc1ccccc1)C(=O)N[C@H](C(=O)N[C@@H](CCC(=O)O)C(=O)N[C@@H](Cc1c[nH]c2ccccc12)C(=O)N[C@@H](CC(C)C)C(=O)N[C@@H](CC(C)C)C(=O)N[C@@H](CO)C(=O)N[C@@H](C)C(N)=O)C(C)C)C(=O)O [Compound 28] (H-H[Aib][Ala(pyrazol-1-yl)]GTFTSDYSKYLDSK([γGlu-Palmitoyl])AAHDFVEWLLSA-NH2)
